One data set has as its system PGE2 production in A549 cells. Briefly: Suppressing action against PGE2 production in human cultured cells (A549, IL-1β-induced cyclooxygenase 2, arachidonic acid added). The class given is cell-based. The note with it: 10 μM test substance, PGE2 in medium by EIA, duplicate. As to the method:
In Vitro Evaluation Method (Suppressing Action Against PGE2 Production in Human Cultured Cells)
A549 cells were inoculated on a 24-well plate (10^5 cells/ml/well), and cultured for 1 day in the Ham's F-12 medium containing 10% fetal bovine serum (FBS). The medium was removed, and the cells were washed with Dulbecco's phosphate buffered saline (PBS), and then cultured for 3 days in the Ham's F-12 medium containing 1 ng/ml of a recombinant human IL-1β and FBS to induce cyclooxygenase 2. After the medium was removed, and the cells were washed with PBS, 0.99 ml of the Ham's F-12 mediums containing a test substance (dissolved in dimethyl sulfoxide at a final concentration of 1% and added) and […] L-glutathione reduced was added to the cells, and the cells were incubated at 37° C. for 30 minutes in a 5% CO2 incubator. To the culture was added 10 μl of a 0.5 mg/ml solution of arachidonic acid in ethanol (final concentration: 5 μg/ml), and the reaction was performed by incubating the culture at 37° C. and 50 rpm for 30 minutes. After completion of the reaction, the medium was immediately collected, and the PGE2 concentration in the medium was measured by using Prostaglandin E2 Express EIA Kit (Cayman Chemical). Dimethyl sulfoxide not containing the test substance was added to a blank and a control, and ethanol not containing arachidonic acid was added to the blank to perform the reaction. The experiment was performed in duplicate. The suppression rate of the test substance based on the control was calculated by using the following equation. Suppression rate (100%)=100×[1−(PGE2 concentration in medium containing test substance−PGE2 concentration in medium of blank)/(PGE2 concentration in medium of control−PGE2 concentration in medium of blank)]
As to `CC(C(=O)O)c1ccc(CC2SCCC2O)cc1` (single isomer, unassigned) [Example 27-A, 2-[4-(3-Hydroxythiolan-2-ylmethyl)phenyl]propionic Acid], the “PGE2 production suppression rate at 10 μM, Suppression rate (%)” value turned out to be 40.0%. Still for that read-out and setting: in the case of `CC(C(=O)O)c1ccc(CC2SCCC2O)cc1` (single isomer, unassigned) [Example 27-B, 2-[4-(3-Hydroxythiolan-2-ylmethyl)phenyl]propionic Acid] it was 76.3%.

Consider `CC(C(=O)O)c1ccc(CC2CCCC2O)cc1` (centres unmarked) [LXP-2a, reference compound], for which the “PGE2 production suppression rate at 10 μM, Suppression rate (%)” value is given as 92.0%.

The data set is the same for the next values; noted with them: Homo sapiens, A549, 0.5 h, 10 μM test substance, PGE2 in medium by EIA, duplicate, read-out: PGE2 production suppression rate at 10 μM, Suppression rate (%).
For `CC(C(=O)O)c1ccc(/C=C2\SCCCC2=O)cc1` (centres unmarked) [Example 4, 2-[4-(3-Oxothian-2-ylidenemethyl)phenyl]propionic Acid], the inhibition at 10 µM amounted to 77.8%. Take `CC(C(=O)O)c1ccc(/C=C2\SCCCC2O)cc1` (centres unmarked) [Example 5, 2-[4-(3-Hydroxythian-2-ylidenemethyl)phenyl]propionic Acid]: the inhibition at 10 µM is 68.4%. Same read-out and setting: in the case of `CC(C(=O)O)c1ccc(CC2CSCC2=O)cc1` (centres unmarked) [Example 8, 2-[4-(4-Oxothiolan-3-ylmethyl)phenyl]propionic Acid] it was 66.4%; in that of `CC(C(=O)O)c1ccc(CC2CSCC2O)cc1` (centres unmarked) [Example 9-A, 2-[4-(4-Hydroxythiolan-3-ylmethyl)phenyl]propionic Acid], 34.7%. With `CC(C(=O)O)c1ccc(CC2C=CSC2)cc1` (centres unmarked) [Example 10, 2-[4-(2,3-Dihydrothiophen-3-ylmethyl)phenyl]propionic Acid], the inhibition at 10 µM was 69.4%. On the same count and under the same terms, in the case of `CC(C(O)=S)c1ccc(CC2CSCC2=O)cc1` (centres unmarked) [Example 11, 2-[4-(4-Oxothiolan-3-ylmethyl)phenyl]thiopropionic Acid] it was 49.2%.

For `CC(C(=O)OC(C)(C)C)c1ccc(/C=C2\SCCC2=O)cc1` (centres unmarked) [Example 13, tert-Butyl 2-{4-[3-oxothiolan-(Z)-2-ylidenemethyl]phenyl}propionate], the inhibition at 10 µM came to 48%. In the case of `CC(C(=O)O)c1ccc(/C=C2\SCCC2=O)cc1` (centres unmarked) [Example 14, 2-{4-[3-Oxothiolan-(Z)-2-ylidenemethyl]phenyl}propionic Acid], the inhibition at 10 µM is 98.5%. With `CCOC(=O)C(C)c1ccc(/C=C2\SCCC2=O)cc1` (centres unmarked) [Example 15, Ethyl 2-{4-[3-oxothiolan-(Z)-2-ylidenemethyl]phenyl}propionate], the inhibition at 10 µM was 36.9%. For the molecule `CC(C(=O)O)c1ccc(/C=C2\SCCC2O)cc1` (centres unmarked) [Example 18, 2-{4-[3-Hydroxythiolan-(Z)-2-ylidenemethyl]phenyl}propionic Acid], the inhibition at 10 µM turned out to be 99.5%.

On to `C[C@H](C(=O)O)c1ccc(/C=C2\SCC[C@@H]2O)cc1` [Example 19-C, (2S,3′S)-2-{4-[3-Hydroxythiolan-(Z)-2-ylidenemethyl]phenyl}propionic Acid], for which the inhibition at 10 µM turned out to be 101%. The same measure, in the same setting: in the case of `C[C@@H](C(=O)O)c1ccc(/C=C2\SCC[C@@H]2O)cc1` [Example 19-D, (2R,3′S)-2-{4-[3-Hydroxythiolan-(Z)-2-ylidenemethyl]phenyl}propionic Acid] it was 44.5%; in that of `C[C@H](C(=O)O)c1ccc(/C=C2/C=CCS2)cc1` [Example 20, (2S)-2-[4-(2,5-Dihydrothien-(Z)-2-ylidenemethyl)phenyl]propionic Acid], 94.5%.

For `CC(C(=O)O)c1ccc(/C=C2\CSCC2O)cc1` (centres unmarked) [Example 22, 2-[4-(4-Hydroxythiolan-3-ylidenemethyl)phenyl]propionic Acid], the inhibition at 10 µM worked out at 99.7%.

Take `CC(C(=O)O)c1ccc(/C=C2\CSCC2=O)cc1` (centres unmarked) [Example 23, 2-[4-(4-Oxothiolan-3-ylidenemethyl)phenyl]propionic Acid]: the inhibition at 10 µM is 102%. On the same count and under the same terms, the result for `CC(C(=O)O)c1ccc(/C=C2\SCCC2(F)F)cc1` (centres unmarked) [Example 25, 2-[4-(3,3-Difluorothiolan-2-ylidenemethyl)phenyl]propionic Acid] reads 73.3%; that for `CC(C(=O)O)c1ccc(CC2SCCC2=O)cc1` (centres unmarked) [Example 26, 2-[4-(3-Oxothiolan-2-ylmethyl)phenyl]propionic Acid], 79.6%. As to `O=C(O)Cc1ccc(/C=C2\SCCC2=O)cc1` [Example 29, 4-(3-Oxothiolan-2-ylidenemethyl)phenylacetic Acid], the inhibition at 10 µM is 96.8%. As for `O=C(O)Cc1ccc(/C=C2\SCCC2O)cc1` (centres unmarked) [Example 31, 4-(3-Hydroxythiolan-2-ylidenemethyl)phenylacetic Acid], the inhibition at 10 µM worked out at 85.9%. Still for that read-out and setting: the result for `CC(C(=O)O)c1ccc(/C=C2\CCSC2=O)cc1` (centres unmarked) [Example 35, 2-[4-(2-Oxothiolan-3-ylidenemethyl)phenyl]propionic Acid] reads 44%; that for `CC(C(=O)O)c1ccc(/C=C2/CCCS2)cc1` (centres unmarked) [Example 37, 2-[4-(Thiolan-2-ylidenemethyl)phenyl]propionic Acid], 89.7%; that for `COc1cc(/C=C2\SCCC2O)ccc1C(C)C(=O)O` (centres unmarked) [Example 53, 2-[4-(3-Hydroxythiolan-2-ylidenemethyl)-2-methoxyphenyl]propionic Acid], 72.8%. On the same count and under the same terms, the result for `CC(C(=O)O)c1ccc(/C=C2\SCCC2O)c([N+](=O)[O-])c1` (centres unmarked) [Example 57, 2-[4-(3-Hydroxythiolan-2-ylidenemethyl)-3-nitrophenyl]propionic Acid] reads 91.6%; that for `CC(C(=O)O)c1ccc(/C=C2\SCCC2O)c(F)c1` (centres unmarked) [Example 61, 2-[3-Fluoro-4-(3-hydroxythiolan-2-ylidenemethyl)phenyl]propionic Acid], 92.8%.

On to `CC(C(=O)O)c1ccc(/C=C2\SCCC2O)c(Cl)c1` (centres unmarked) [Example 65, 2-[3-Chloro-4-(3-hydroxythiolan-2-ylidenemethyl)phenyl]propionic Acid], for which the inhibition at 10 µM was 101%.

With `CC(C(=O)O)c1cccc(/C=C2\SCCC2O)c1` (centres unmarked) [Example 69, 2-[3 (3-Hydroxythiolan-2-ylidenemethyl)phenyl]propionic Acid], the inhibition at 10 µM turned out to be 22.8%.

Another data set concerns CPA-induced rat pollakiuria model. The experiment in a line: Anti-pollakiuria effect in cyclophosphamide (CPA)-induced rat pollakiuria model. The class given is in vivo. The note with it: oral administration, male SD rats, CPA 150 mg/kg i.p., urination frequency over 3 hours, probit method. As to the method: 1. Anti-Pollakiuria Effect in Cyclophosphamide (CPA)-Induced Rat Pollakiuria Model
To 7-week old male SD rats, 150 mg/kg of CPA was intraperitoneally administered, and the rats were starved for 24 hours, and then used for the test. Thirty minutes after the oral administration of the test substance, physiological saline (30 ml/kg) was orally administered, the rats were put into a metabolism cage for rats, and then frequency of urination was counted for 3 hours. For the counting of the frequency of urination, a weighing dish hung from an FD pickup was disposed at a urine outlet at the lower part of the metabolism cage, and frequency of urination was obtained based on change of urination volume obtained by a polygraph apparatus. To a control (treated with CPA) and an intact control (no treatment), the solvent was orally administered, and frequency of urination was counted in the same manner. Improvement rate of pollakiuria induced by the CPA treatment relative to the control was calculated in accordance with the following equation, and ED50 value was further calculated by the probit method based on the improvement rate at each dose. Improvement rate (%)=(Urination frequency of control−Urination frequency observed with test substance)/(Urination frequency of control−Urination frequency of intact control)×100
In general, ED50 refers to the dose that gives a 50% effect, or the effect in half of the subjects. Regarding `C[C@H](C(=O)O)c1ccc(/C=C2\SCC[C@@H]2O)cc1` [Example 19-C, (2S,3′S)-2-{4-[3-Hydroxythiolan-(Z)-2-ylidenemethyl]phenyl}propionic Acid], the 50% effect level (ED50) was put at a dose of 0.1 mg/kg.

Molecule `CC(C(=O)O)c1ccc(CC2CCCC2=O)cc1` (centres unmarked) [Loxoprofen-Na, reference compound] came in with an ED50 of 1.8 mg/kg.

A further data set concerns gastric mucosa. The experiment in a line: Gastric mucosa injury induction action by single oral administration in rats. The class given is in vivo, rat. Conditions: starved male SD rats, stomach examined after 5 hours, probit method. As to the method:
2. Gastric Mucosa Injury Induction Action by Single Oral Administration in Rats
7-Week old male SD rats were starved for 24 hours, and then used for the test. Five hours after the oral administration of a test substance, the stomach was extracted, and incised along the greater curvature of stomach, and a stomach specimen was fixed in a neutrally buffered 1% formalin solution. The stomach specimen was observed under a stereoscopic microscope, and when specimen had four or more hemorrhagic sores or ulcers having a major axis of 0.5 mm or larger, the result was judged to be positive. […]
With `C[C@H](C(=O)O)c1ccc(/C=C2\SCC[C@@H]2O)cc1` [Example 19-C, (2S,3′S)-2-{4-[3-Hydroxythiolan-(Z)-2-ylidenemethyl]phenyl}propionic Acid], the “UD30 value (gastric mucosa injury)” value stood at 13.8 mg/kg. For the molecule `CC(C(=O)O)c1ccc(CC2CCCC2=O)cc1` (centres unmarked) [Loxoprofen-Na, reference compound], the “UD30 value (gastric mucosa injury)” value is reported as 25.5 mg/kg.

Tested on in the next data set: not listed separately
Briefly: Safety factor (UD30 gastric mucosa injury / ED50 anti-pollakiuria). Conditions: SD, rat, in vivo. Type of data set: in vivo. The text has this:
Safety factor was obtained in accordance with the following equation using the ED50 value and UD30 value obtained in the tests for the anti-pollakiuria effect in CPA-induced rat pollakiuria model and the gastric mucosa injury induction action by single oral administration in rats, respectively. Safety factor=UD30 value (mg/kg) for gastric mucosa injury induction action by single oral administration in rats/ED50 value (mg/kg) for anti-pollakiuria effect in CPA-induced rat pollakiuria model
The molecule `CC(C(=O)O)c1ccc(CC2CCCC2=O)cc1` (centres unmarked) [Loxoprofen-Na, reference compound] returned a Safety factor of 14.

The same data set, now with this note: UD30 value (mg/kg) / ED50 value (mg/kg), rats.
In turn, `C[C@H](C(=O)O)c1ccc(/C=C2\SCC[C@@H]2O)cc1` [Example 19-C, (2S,3′S)-2-{4-[3-Hydroxythiolan-(Z)-2-ylidenemethyl]phenyl}propionic Acid] yielded a Safety factor of 138.

These data come from US8148421B2, “Phenylacetic acid derivative” (Fuji Yakuhin Co., Ltd., priority 2006, dated 2012).
